Where two headings read alike, the source gives them in different places.
Tests used:
[1] = test system: RSV genotype B, strain 9320; experiment: RSV-B assay: A549 cells infected with RSV-B, qPCR or ATPlite readout; type: cell-based; conditions: read-out: Human RSV-B EC50
Excerpt: HEp-2 cells, (originally derived from tumors grown in irradiated-cortisonised weanling rats that had been injected with epidermoid carcinoma tissue from a person's larynx, but later found to be indistinguishable from HeLa cells by PCR DNA analysis), were used for the culturing of genotype B, strain 9320. Flasks were inoculated with RSV-B and viral stocks were collected once cytopathic effect (CPE) was greater than […]. Viral stocks in 25% sucrose media were snap frozen using liquid nitrogen to increase viral stability. Viral stock titers were quantified by tissue culture infectious dose 50% (TCID50) using 8,000 cells per well and 5-fold viral dilutions across a 96-well plate, cultured for 4 days. Viral stock titers were also quantified by a plaque forming unit assay, as described elsewhere.
The assay is run as follows: A549 cells (originally derived through explant culture from a person's carcinomatous lung tissue) are seeded into the inner 60 wells of a 96-well plate at 3,000 cells per well in a volume of 50 μL using A549 growth media (F-12K Media, 1% Penn/Strep, 1% nonessential amino acids, 10% heat-inactivated FBS). 2-fold serial dilutions of control and test compounds are added to the wells in duplicate in a total volume of 25 μL. Viral stock is then added to the wells at a multiplicity of infection (MOI) of 0.5 in a volume of 25 μL, bringing the total volume of each well to 100 μL. The MOI is calculated using the PFU/mL, or TCID50 if unavailable. Each 96-well plate has a control column of 6 wells with cells and virus but no compound (negative control, max CPE), a column with cells but no compound or virus (positive control, minimum CPE), and a column with no cells or virus or compound (background plate/reagent control). The control wells with cells but no virus are given an additional 25 μL of growth media containing an equal quantity of sucrose as those wells receiving the viral stock in order to keep consistent in media and volume conditions. The outer wells of the plate are filled with 125 μL of moat media (DMEM, 1% Penn/Strep) to act as a thermal and evaporative moat around the test wells. 6 days post infection, the plates are read using qPCR or ATP lite (50 μL added per well), which quantifies the amount of ATP (a measure of cell health) present in each well. Assay plates treated with APTlite are read using the Envision luminometer. […] EC50 ranges are as follows: A <0.4 μM; B 0.4-0.8 μM; C >0.8 μM.

[2] = test system: genotype A, "Long" strain RSV; experiment: RSV-A assay: CPE protection in HEp-2 cells, ATPlite readout; type: cell-based, human respiratory syncytial virus
Procedure, shortened: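 HEp-2 cells (8,000/well) with 2-fold compound dilutions in duplicate, infected with Long-strain RSV at MOI 0.1 and incubated 5 days. Cell ATP measured by ATPlite luminescence to give EC50; uninfected parallel plate gives CC50.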

HEp-2 cells = experiment: Cytotoxicity in parallel to the RSV-A assay (no virus), ATPlite readout; type: cell-based, human
Experimental: Following extensive parameter testing, the final assay is run as follows: HEp-2 cells are seeded into the inner 60 wells of a 96-well plate at 8,000 cells per well in a volume of 50 μL using Growth Media (DMEM without phenol red, 1% L-Glut, 1% Penn/Strep, 1% nonessential amino acids, 10% heat-inactivated FBS). 2-fold serial dilutions of control and test compounds are added to the wells in duplicate in a total volume of 25 μL. Viral stock is then added to the wells at a multiplicity of infection (MOI) of 0.1 in a volume of 25 μL, bringing the total volume of each well to 100 μL. The MOI is calculated using the PFU/mL, or TCID50 if unavailable. Each 96-well plate has a control column of 6 wells with cells and virus but no compound (negative control, max CPE), a column with cells but no compound or virus (positive control, minimum CPE), and a column with no cells or virus or compound (background plate/reagent control). The control wells with cells but no virus are given an additional 25 μL of growth media containing an equal quantity of sucrose as those wells receiving the viral stock in order to keep consistent in media and volume conditions. The outer wells of the plate are filled with 125 μL of moat media (DMEM, 1% Penn/Strep) to act as a thermal and evaporative moat around the test wells. Following a 5-day incubation period, the plates are read using ATPlite (50 μL added per well), which quantifies the amount of ATP (a measure of cell health) present in each well. Assay plates are read using the Envision luminometer. In parallel, cytotoxicity is examined on an additional 96-well plate treated in an identical manner, but substituting the 25 μL of viral stock for 25 μL of growth media. […] EC50 ranges are as follows: A <0.4 μM; B 0.4-0.8 μM; C >0.8 μM and CC50 ranges are as follows: A >50 μM; B 10-50 μM; C <10 μM.

[3] = human respiratory syncytial virus, A549, 144 h
[4] = human respiratory syncytial virus, HEp-2, read-out: Human RSV-A (“Long” strain) EC50
[5] = HEp-2 cells, RSV-A Long strain, ATPlite readout, read-out: Human RSV-A (“Long” strain) EC50

SMILES	EC50 [1, 3] [µM]	EC50 [2, 4] [µM]	EC50 ([1]; A549 cells, strain 9320, MOI 0.5, 6 days post infection) [µM]	EC50 [2, 5] [µM]	CC50 (HEp-2 cells) [µM]
O=C1Nc2ccccc2C(c2ccccc2)=N[C@@H]1Nc1nnc(-c2csc(N3CCOCC3)n2)o1 [Example 351]	0.4 to 0.8	0.4 to 0.8			
O=C1Nc2ccccc2C(c2ccccc2)=N[C@@H]1Nc1nnc(-c2oc3ccccc3c2N2CCOCC2)o1 [Example 179]	< 0.4	< 0.4			
O=C1Nc2ccccc2C(c2ccccc2)=N[C@@H]1Nc1nnc(-c2ncc(C(F)(F)F)cc2N2CCC(F)CC2)o1 [Example 269]	0.4 to 0.8	> 0.8			
O=C1Nc2ccccc2C(c2ccccc2)=N[C@@H]1Nc1nnc(-c2nc(C3CC3)sc2N2CCOCC2)o1 [Example 338]	< 0.4	< 0.4			
N#Cc1ccc(-c2ccc(NC3N=C(c4ccccc4)c4ccccc4NC3=O)nn2)cc1 (centres unmarked) [Example 377]	< 0.4	< 0.4			
O=C1Nc2ccccc2C(c2ccccc2)=N[C@@H]1Nc1nnc(-c2ncc(C(F)(F)F)cc2N2C3CCC2COC3)o1 [Example 250]	< 0.4	< 0.4			
O=C1Nc2ccccc2C(c2ccccc2)=N[C@@H]1Nc1nnc(-c2nc(-c3ccccc3)sc2N2CCOCC2)o1 [Example 340]	< 0.4	< 0.4			
O=C1Nc2c(F)cccc2C(c2ccccc2)=N[C@@H]1Nc1nnc(-c2cccnc2N2CCOCC2)o1 (single isomer, unassigned) [Example 358]			< 0.4	< 0.4	
CC(C)n1cc(-c2nnc(N[C@H]3N=C(c4ccccc4)c4ccccc4NC3=O)o2)c(N2CCOCC2)n1 [Example 403]	< 0.4	< 0.4			
O=C1Nc2c(F)cccc2C(c2ccccc2)=N[C@@H]1Nc1nnc(-c2ccccc2N2CCOCC2)o1 [Example 355a]	< 0.4	< 0.4			
O=C1Nc2ccccc2C(c2ccccc2)=N[C@@H]1Nc1nnc(-c2ncc(C3CC3)cc2N2CCOCC2)o1 [Example 169]	< 0.4	< 0.4			
C[C@@H]1COCCN1c1ncccc1-c1nnc(NC2N=C(c3ccccc3)c3ccccc3NC2=O)o1 (some centres unmarked) [Example 245]	0.4 to 0.8	< 0.4			
O=C1Nc2ccccc2C(c2ccccc2)=N[C@@H]1Nc1nnc(-c2ncc(F)cc2N2CCOCC2)o1 [Example 136, (S)-3-((5-(5-fluoro-3-morpholinopyridin-2-yl)-1,3,4-oxadiazol-2-yl)amino)-5-phenyl-1,3-dihydro-2H-benzo[e][1,4]diazepin-2-one]	< 0.4	< 0.4			
O=C1Nc2ccccc2C(c2ccccc2)=N[C@@H]1Nc1nnc(-c2ncc(Br)cc2N2CCOCC2)o1 [Example 168]	< 0.4	< 0.4			
N#Cc1ccc(-c2nnc(NC3N=C(c4ccccc4)c4ccccc4NC3=O)o2)c(N2CCOCC2)c1 (centres unmarked) [Example 131]	< 0.4	< 0.4			
O=C1Nc2ccccc2C(c2ccccc2)=N[C@@H]1Nc1nnc(-c2ncsc2N2CCOCC2)o1 [Example 336]	< 0.4	< 0.4			
O=C1Nc2ccccc2C(c2ccccc2)=N[C@@H]1Nc1nnc(-c2nc(C(F)(F)F)sc2N2CCOCC2)o1 [Example 339]	< 0.4	< 0.4			
Cc1ccc(-c2nnc(N[C@H]3N=C(c4ccccc4)c4ccccc4NC3=O)o2)c(N2CCOCC2)n1 [Example 252]	< 0.4	< 0.4			
N#CCCNc1cc(C(F)(F)F)cnc1-c1nnc(N[C@H]2N=C(c3ccccc3)c3ccccc3NC2=O)o1 [Example 303]	< 0.4	< 0.4			
O=C1Nc2ccccc2C(c2ccccc2)=NC1Nc1nnc(-c2ccc(N3CCOCC3)cc2)o1 (centres unmarked) [Example 124]	< 0.4				
O=C1Nc2ccccc2C(c2ccccc2)=NC1Nc1nnc(-c2ccccc2N2CCOCC2)o1 (centres unmarked) [Example 125]	0.4 to 0.8				
N#Cc1cnc(-c2nnc(N[C@H]3N=C(c4ccccc4)c4ccccc4NC3=O)o2)c(N2CCOCC2)c1 [Example 160]	< 0.4				

SMILES	EC50 [1, 3] [µM]	EC50 [2, 4] [µM]	EC50 ([1]; A549 cells, strain 9320, MOI 0.5, 6 days post infection) [µM]	EC50 [2, 5] [µM]	CC50 (HEp-2 cells) [µM]
O=C1Nc2ccccc2C(c2ccccc2)=NC1Nc1nnc(-c2ccc(-n3cccn3)cc2)o1 (centres unmarked) [Example 36]		0.4 to 0.8			10 to 50
O=C1Nc2ccccc2C(c2ccccc2)=NC1Nc1nnc(-c2ccc(F)cc2)s1 (centres unmarked) [Example 80]		> 0.8			> 50
CN1CCc2nc(-c3nnc(NC4N=C(c5ccccc5)c5ccccc5NC4=O)o3)sc2C1 (centres unmarked) [Example 44]		> 0.8			> 50
O=C1Nc2ccccc2C(c2ccccc2)=NC1Nc1nc(-c2ccccc2)cs1 (centres unmarked) [Example 90]		> 0.8			< 10
O=C1Nc2ccccc2C(c2ccccc2)=NC1Nc1nnc(-c2cscn2)o1 (centres unmarked) [Example 77]		0.4 to 0.8			> 50
O=C1Nc2ccccc2C(c2ccccc2)=N[C@H]1Nc1nnc(-c2ccc(F)cc2)o1 [Example 7b]		> 0.8			10 to 50
Cc1ccc(-c2nnc(NC3N=C(c4ccccc4)c4ccccc4NC3=O)o2)s1 (centres unmarked) [Example 19]		> 0.8			> 50
COc1cc(-c2nnc(NC3N=C(c4ccccc4)c4ccccc4NC3=O)o2)ccc1F (centres unmarked) [Example 14]		< 0.4			10 to 50
Cn1nccc1-c1nnc(NC2N=C(c3ccccc3)c3ccccc3NC2=O)o1 (centres unmarked) [Example 65]		> 0.8			> 50
O=C1Nc2ccccc2C(c2ccccc2)=NC1Nc1cc(Oc2ccccc2)ncn1 (centres unmarked) [Example 94]		> 0.8			10 to 50
COc1ccccc1-c1nnc(NC2N=C(c3ccccc3)c3ccccc3NC2=O)o1 (centres unmarked) [Example 9]		> 0.8			> 50
O=C1Nc2ccccc2C(c2ccccc2)=NC1Nc1nnc(-c2cccc(F)c2)o1 (centres unmarked) [Example 3]		> 0.8			> 50
Cn1ccnc1-c1nnc(NC2N=C(c3ccccc3)c3ccccc3NC2=O)o1 (centres unmarked) [Example 67]		> 0.8			> 50
O=C1Nc2ccccc2C(c2ccccc2)=NC1Nc1nnc(-c2ncccn2)o1 (centres unmarked) [Example 59]		> 0.8			> 50
O=C1Nc2ccccc2C(c2ccccc2)=NC1Nc1nnc(-c2cncnc2)o1 (centres unmarked) [Example 60]		> 0.8			> 50
O=C1Nc2ccccc2C(c2ccccc2)=NC1Nc1nc2ccc(Cl)cc2o1 (centres unmarked) [Example 99]		> 0.8			10 to 50
O=C1Nc2ccccc2C(c2ccccc2)=NC1Nc1nnc(-c2ccc(C(F)(F)F)cn2)o1 (centres unmarked) [Example 25]		> 0.8			> 50
O=C1Nc2ccccc2C(c2ccccc2)=NC1Nc1nc(-c2ccccc2)no1 (centres unmarked) [Example 89]				> 0.8	10 to 50
O=C1Nc2ccccc2C(c2ccccc2)=NC1Nc1ccnc(-c2ccccc2)n1 (centres unmarked) [Example 96]		> 0.8			10 to 50
O=C1Nc2ccccc2C(c2ccccc2)=NC1Nc1nnc(-c2ccnc(F)c2)o1 (centres unmarked) [Example 55]		< 0.4			> 50
O=C1Nc2ccccc2C(c2ccccc2)=NC1Nc1nnc(-c2cncs2)o1 (centres unmarked) [Example 76]		> 0.8			> 50

Source: patent US12268694B2, “Combination pharmaceutical agents as RSV inhibitors” (Enanta Pharmaceuticals, Inc., priority 2017, dated 2025)
